Values belong to the molecule of their own block, whether it stands above or below them.
What was measured:
[1] = system: recombinant human 2-5A-dependent RNase; assay: UV covalent crosslinking of 2-5A probe with competitors, human enzyme; type: binding; details: competitor 100 nM; recombinant human enzyme produced in wheat germ extract
Procedure: FIG. 5A is specific affinity of recombinant human 2-5A-dependent RNase for 2-5A. Crosslinking of the 2-5A probe (lanes 1-7) to protein is performed after translation reaction in wheat germ extract (5 λl) with human 2-5A-dependent RNase mRNA (lanes 1-3) or without added RNA (lane 4) or in extract of human interferon a treated (1000 units per ml for 16 h) human HeLa cells (350 μg of protein) (lanes 5-7). Reactions were without added competitor (lanes 1, 4, and 5) or in the presence of either timer core, (A2'p)2 A, (100 nM) (lanes 2 and 6) or timer 2-5A, p3 (A2'p)2 A (100 nM) (lanes 3 and 7). Incubations with ^35 S-methionine are shown in lanes 8 to 12. Lane 8 is with wheat germ extract and human 2-5A-dependent RNase mRNA. Reticulocyte lysate preadsorbed to 2-5A-cellulose is incubated with human 2-5A-dependent RNase mRNA in the absence (lane 9) or presence (lane 10) of cycloheximide, or in the absence of added mRNA (lane 11). […] The positions and relative molecular masses (in kDa) of the marker proteins are indicated.
The synthesis of the 2-5A probe, p(A2'p)2 (br^8 A2'p)2 A[32P]Cp, and its crosslinking to 2-5A-dependent RNase is performed exactly as described. See Nolan-Sorden, N. L. et al., Anal. Biochem., 184:298-304 (1990). […]

[2] = system: murine 2-5A-dependent RNase (truncated recombinant clone ZB1 and murine L cell enzyme); assay: UV covalent crosslinking of 32P-2-5A probe with unlabeled oligonucleotide competitors, murine enzyme; type: binding; details: for competition with 2-5A probe binding: competitor 100 nM, recombinant 74 kDa protein produced in wheat germ extract
Procedure: FIG. 2A is a specific affinity of truncated murine 2-5A-dependent RNase for 2-5A. UV covalent crosslinking of the ^32 P-2-5A probe (lanes 1-7) to protein is performed after translation reactions in wheat germ extract (5 μl) with murine 2-5A-dependent RNase mRNA (from clone ZB1) (lanes 1-3) or without added RNA (lane 4) or in extract of interferon treated mouse L cells (100 μg of protein) (lanes 5-7). Reactions are without added competitor (lanes 1, 4, and 5) or in the presence of either timer core. (A2'p)2 A, (100 nM) (lanes 2 and 6) or timer 2-5A, p3 (A2'p)2 A (100 nM) (lanes 3 and 7).
Autoradiograms of the dried SDS/10% polyacrylamide gels are shown. Concentrations of the oligonucleotide competitors are indicated. […].
(§1) The synthesis of the 2-5A probe, p(A2'p)2 (br^8 A2'p)2 A[32P]Cp, and its crosslinking to 2-5A-dependent RNase is performed exactly as described. See Nolan-Sorden, N. L. et al., Anal. Biochem., 184:298-304 (1990). Briefly, the 2-5A probe, about 0.7 to 2.5 nM at […], is incubated for about one hour on ice with cell extract prepared as described, Silverman, R. H. and Krause, D., I.R.L. Press, Oxford, England, pp. 149-193 (1987), in the absence or presence of unlabeled oligonucleotide competitors. Covalent crosslinking is done under a uv lamp (308 nm) for one hour on ice and the proteins are separated on SDS/10% polyacrylamide gels. Filter assays for 2-5A binding activity using the 2-5A probe for about one hour on ice, as described in Knight, M. et al., Nature, 288:189-192 (1980).

2-5A probe = assay: 2-5A binding activity of nested 3'-deletion clones (filter binding and uv crosslinking); details: produced in wheat germ extract
Source text: See Example and Knight et al. 1980). The positions of the P-loop motifs and the lengths of the translation products are indicated. Clone ZB1 encodes for amino acids designated as 1-656 in Table 2, except for the last 5 amino acid residues which are Lys, Pro, Leu, Ser, and Gly. Clone ZB2 encodes for amino acids designated as 1-619 in Table 2. Clone ZB3 encodes for amino acids designated as 1-515 in Table 2. Clone ZB5 encodes for amino acids designated as 1-474 in Table 2. Clone ZB9 encodes for amino acids designated as 1-403 in Table 2. Clone ZB10 encodes for amino acids designated as 1-365 in Table 2. Clone ZB13 encodes for amino acids designated as 1-294 in Table 2. Clone ZB14 encodes for amino acids designated as […] in Table 2. Clone ZB15 encodes for amino acids designated as 1-218 in Table 2.
The set of nested 3'-deletions of the truncated murine 2-5A-dependent RNase cDNA, ZB1, is generated with exonuclease III/S1 nuclease digestion followed by filling-in with Klenow DNA Polymerase using the "Erase-A-Base" system (Promega).
as §1

[3] = 2-5A probe 2.4 nM, both recombinant and naturally occurring protein

Molecule: p3 (A2'p)2 A
competition with 2-5A probe binding [1]: effectively competes | concentration that prevents the 2-5A probe from binding [2, 3]: about 20 nM | competition with 2-5A probe binding [2]: completely prevents probe binding

Molecule: p3 A2'pA
concentration required to prevent 2-5A probe binding [2, 3]: > 10 µM

Molecule: p3 I2'pA2'pA
concentration required to prevent 2-5A probe binding [2, 3]: about 1.0 μM

B2: ZB11: murine 2-5A-dependent RNase deletion clone, amino acid residues 1 to 342 (protein, UniProt Q05921 1-342, looked up, fragment)
chain: METPDYNTPQGGTPSAGSQRTVVEDDSSLIKAVQKGDVVRVQQLLEKGADANACEDTWGWTPLHNAVQAGRVDIVNLLLSHGADPHRRKKNGATPFIIAGIQGDVKLLEILLSCGADVNECDENGFTAFMEAAERGNAEALRFLFAKGANVNLRRQTTKDKRRLKQGGATALMSAAEKGHLEVLRILLNDMKAEVDARDNMGRNALIRTLLNWDCENVEEITSILIQHGADVNVRGERGKTPLIAAVERKHTGLVQMLLSREGINIDARDNEGKTALLIAVDKQLKEIVQLLLEKGADKCDDLVWIARRNHDYHLVKLLLPYVANPDTDPPAGDWSPHSSRW
loss of 2-5A binding activity as compared to clone ZB1 (2-5A probe): about 26%

B4: ZB14: murine 2-5A-dependent RNase deletion clone, amino acids 1 to 265, one P-loop motif deleted (protein, UniProt Q05921 1-265, looked up, fragment)
chain: METPDYNTPQGGTPSAGSQRTVVEDDSSLIKAVQKGDVVRVQQLLEKGADANACEDTWGWTPLHNAVQAGRVDIVNLLLSHGADPHRRKKNGATPFIIAGIQGDVKLLEILLSCGADVNECDENGFTAFMEAAERGNAEALRFLFAKGANVNLRRQTTKDKRRLKQGGATALMSAAEKGHLEVLRILLNDMKAEVDARDNMGRNALIRTLLNWDCENVEEITSILIQHGADVNVRGERGKTPLIAAVERKHTGLVQMLLSREGIN
2-5A binding activity, % of clone ZB1 (2-5A probe): 1.9%

More lines, main results first:

competition with 2-5A probe binding [1]: not prevented
Molecule: (A2'p)2 A
concentration required to prevent 2-5A probe binding [2, 3]: 10 µM | competition with 2-5A probe binding [2]: fails to interfere with binding | fold higher concentration than trimer 2-5A required to prevent probe binding ([2]; relative to p3 (A2'p)2 A at about 20 nM): 500 fold

2-5A binding activity, % of clone ZB1 (2-5A probe): about 38.3%
B1: ZB13: murine 2-5A-dependent RNase deletion clone, amino acids 1 to 294 (protein, UniProt Q05921 1-294, looked up, fragment)
chain: METPDYNTPQGGTPSAGSQRTVVEDDSSLIKAVQKGDVVRVQQLLEKGADANACEDTWGWTPLHNAVQAGRVDIVNLLLSHGADPHRRKKNGATPFIIAGIQGDVKLLEILLSCGADVNECDENGFTAFMEAAERGNAEALRFLFAKGANVNLRRQTTKDKRRLKQGGATALMSAAEKGHLEVLRILLNDMKAEVDARDNMGRNALIRTLLNWDCENVEEITSILIQHGADVNVRGERGKTPLIAAVERKHTGLVQMLLSREGINIDARDNEGKTALLIAVDKQLKEIVQLLLE

2-5A binding activity, % of clone ZB1 (2-5A probe): completely lacking
B3: ZB15: murine 2-5A-dependent RNase deletion clone, amino acids 1 to 218, both P-loop motifs deleted (protein, UniProt Q05921 1-218, looked up, fragment)
chain: METPDYNTPQGGTPSAGSQRTVVEDDSSLIKAVQKGDVVRVQQLLEKGADANACEDTWGWTPLHNAVQAGRVDIVNLLLSHGADPHRRKKNGATPFIIAGIQGDVKLLEILLSCGADVNECDENGFTAFMEAAERGNAEALRFLFAKGANVNLRRQTTKDKRRLKQGGATALMSAAEKGHLEVLRILLNDMKAEVDARDNMGRNALIRTLLNWDCENV

From patent publication US5866787A, “Transgenic plants co-expressing a functional human 2-5A system” (Cleveland Clinic Foundation, priority 1995, dated 1999)
